Results from patent US20260193274A1, “AKT1 MODULATORS” (Alterome Therapeutics, Inc., priority 2022, published 2026).

Target: T1, AKT1-E17K (Homo sapiens, UniProt P31749, E17K)
T1 construct: host or cells: HEK-293 (ATCC CRL-1573)
Experiment: NanoBRET Target Engagement (TE) Assay
Format: cell-based
Settings: full length AKT E17K NanoLuc fusion in transfected HEK-293 cells; 2 hr equilibration with tracer and compound
Excerpt: NanoBRET is a highly specific and validated cell-based technique for assessing target engagement (Vasta et al., 2018, Cell Chem Biol. 25(2):206-214). The NanoBRET™ Target Engagement (TE) Intracellular Kinase Assays are based on the NanoBRET™ System (Promega Corporation), an energy transfer technique designed to measure molecular proximity in living cells. The NanoBRET™ TE Assays measure the apparent affinity of test compounds by competitive displacement of the NanoBRET™ tracer compound, which is a cell permeable molecule engineered to be reversibly bound to a NanoLuc® luciferase-kinase fusion expressed in cells. For compound screening, when a test compound binds to the selected kinase, the BRET signal is attenuated. For kinase inhibitors in particular, intracellular target selectivity is fundamental to pharmacological mechanism and allows the proteins of interest to be in the correct cellular confirmation. Although non-cell-based techniques have been developed to measure kinase binding or enzymatic inhibition with accuracy and precision, such approaches can fail to accurately predict engagement of the full-length target protein in the more complex and biologically relevant cellular context (Knight and Shokat, 2005, Chem. Biol. 12, 621-637; Smyth and Collins, 2009, J. Chem. Biol. 2, 131-151). […] Briefly, HEK-293 cells (ATCC Cat #CRL-1573) were used for transfection purposes using FuGENE HD Transfection Reagent (Promega Cat #E2311). All cells were evaluated for viability prior to transfection and optimization of the transfection was done prior to experimentation. Greater than 95% viability was used for all experiments. Following transfection, cells were washed and resuspended in Opti-MEM. NanoBRET assays were performed in white, 384-well plates (Corning) at a density of 2×10^5 cells/well. All example compounds were prepared as concentrated stock solutions in DMSO (Sigma-Aldrich). Compounds are dissolved in DMSO to make 10 mM stock solution. Example compounds were transferred as 40 μL of 10 mM stock solution to a 384 pp-plate (LABCYTE, PP-0200) and diluted in 3-fold, 10-point dilution via transferring […] by Apricot liquid handler. A Labcyte ECHO 550 compound dispenser was used to facilitate compound transfer directly to cells. Cells were equilibrated for 2 hr with energy transfer probes and example compound prior to BRET measurements. The AKTE17K (Promega Cat #NV2421) as well as specific probe (NanoBRET tracer, Promega Cat #N264B) was prepared at a concentration of 20× in tracer dilution buffer (12.5 mM HEPES, 31.25% PEG-400, pH 7.5). For target engagement analysis, the energy transfer probes were added to the cells at concentrations optimized for the target in question (AKT E17K). Following compound incubation, NanoBRET NanoGlo Substrate (Promega Cat #N157D) and Extracellular Nanoluc Inhibitor (Promega Cat #N235C) was added according to the manufacturer's recommended protocol, and luminescence was measured on Envision Reader (Perkin Elmer) Multimode Luminometer equipped with 450 nmBPfilter (donor) and 600 nmLPfilter (acceptor), using 0.5 s integration time. Milli-BRET units (mBU) are calculated by multiplying the raw BRET values by 1000. Apparent tracer affinity values (EC50) were determined using the sigmoidal dose-response (variable slope). Competitive displacement data were then plotted and data were fit to determine the EC50 value for each example compound.

T1 sequence (P31749 whole entry E17K): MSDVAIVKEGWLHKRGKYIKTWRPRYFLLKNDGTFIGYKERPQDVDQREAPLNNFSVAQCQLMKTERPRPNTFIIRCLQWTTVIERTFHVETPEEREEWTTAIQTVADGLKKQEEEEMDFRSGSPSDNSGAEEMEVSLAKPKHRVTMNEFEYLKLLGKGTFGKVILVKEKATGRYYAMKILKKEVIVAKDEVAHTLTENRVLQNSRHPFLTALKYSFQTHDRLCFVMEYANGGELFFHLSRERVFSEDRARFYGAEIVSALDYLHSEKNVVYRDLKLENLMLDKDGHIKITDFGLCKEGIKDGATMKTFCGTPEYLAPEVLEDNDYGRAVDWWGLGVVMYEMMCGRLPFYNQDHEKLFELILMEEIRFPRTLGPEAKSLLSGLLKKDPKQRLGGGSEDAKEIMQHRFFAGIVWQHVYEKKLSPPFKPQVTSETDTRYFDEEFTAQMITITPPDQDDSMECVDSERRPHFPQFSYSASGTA

Row | Structure (SMILES) | IC50 [nM]
1 | N#CN1CC2CCC1CN2Cc1ccc(-n2c(-c3cccnc3N)nc3ccc(-c4ccccc4)nc32)cc1 (stereo not drawn) [Example 37, 5-(4-(2-(2-Aminopyridin-3-yl)-5-phenyl-3H-imidazo[4,5-b]pyridin-3-yl)benzyl)-2,5-diazabicyclo[2.2.2]octane-2-carbonitrile] | 60 to 600
2 | N#CN1CC[C@@]2(CCN(Cc3ccc(-n4c(-c5cccnc5N)nc5ccc(-c6ccccc6)nc54)cc3)C2)C1 [Example 23, (R)-7-(4-(2-(2-Aminopyridin-3-yl)-5-phenyl-3H-imidazo[4,5-b]pyridin-3-yl)benzyl)-2,7-diazaspiro[4.4]nonane-2-carbonitrile] | < 15
3 | C[C@H]1CN(Cc2ccc(-n3c(-c4cccnc4N)nc4ccc(-c5ccccc5)nc43)cc2)CCN1C#N [Example 32, (S)-4-(4-(2-(2-Aminopyridin-3-yl)-5-phenyl-3H-imidazo[4,5-b]pyridin-3-yl)benzyl)-2-methylpiperazine-1-carbonitrile] | > 600
4 | N#CNC1CCC2(CC1)CCN(Cc1ccc(-n3c(-c4cccnc4N)nc4ccc(-c5ccccc5)nc43)cc1)C2 (stereo not drawn) [Example 8, N-(2-(4-(2-(2-Aminopyridin-3-yl)-5-phenyl-3H-imidazo[4,5-b]pyridin-3-yl)benzyl)-2-azaspiro[4.5]decan-8-yl)cyanamide] | 60 to 600
5 | [2H]C([2H])([2H])N(C#N)C1CCN(Cc2ccc(-n3c(-c4cccnc4N)nc4ccc(-c5ccccc5)nc43)cc2)CC1 [Example 41, N-(1-(4-(2-(2-Aminopyridin-3-yl)-5-phenyl-3H-imidazo[4,5-b]pyridin-3-yl)benzyl)piperidin-4-yl)-N-(methyl-d3)cyanamide] | 15 to 60
6 | N#CNC1CCN(Cc2ccc(-n3c(-c4cccnc4N)nc4cccnc43)cc2)CC1 [Example 1, N-(1-(4-(2-(2-Aminopyridin-3-yl)-3H-imidazo[4,5-b]pyridin-3-yl)benzyl)piperidin-4-yl)cyanamide] | > 600
7 | N#CN1CC[C@]2(CCN(Cc3ccc(-n4c(-c5cccnc5N)nc5ccc(-c6ccccc6)nc54)cc3)C2)C1 [Example 40, (S)-7-(4-(2-(2-Aminopyridin-3-yl)-5-phenyl-3H-imidazo[4,5-b]pyridin-3-yl)benzyl)-2,7-diazaspiro[4.4]nonane-2-carbonitrile] | < 15
8 | N#CNC1CCN(Cc2ccc(-n3c(-c4cccnc4N)nc4cc(-c5ccccc5)cnc43)cc2)CC1 [Example 11, N-(1-(4-(2-(2-Aminopyridin-3-yl)-6-phenyl-3H-imidazo[4,5-b]pyridin-3-yl)benzyl)piperidin-4-yl)cyanamide] | 60 to 600
9 | N#CN1CCC2(CCN(Cc3ccc(-n4c(-c5cccnc5N)nc5ccc(-c6ccccc6)nc54)cc3)C2)C1 (stereo not drawn) [Example 19, 7-(4-(2-(2-Aminopyridin-3-yl)-5-phenyl-3H-imidazo[4,5-b]pyridin-3-yl)benzyl)-2,7-diazaspiro[4.4]nonane-2-carbonitrile] | 15 to 60
10 | N#CNC1CC2(CCN(Cc3ccc(-n4c(-c5cccnc5N)nc5ccc(-c6ccccc6)nc54)cc3)CC2)C1 [Example 13, N-(7-(4-(2-(2-Aminopyridin-3-yl)-5-phenyl-3H-imidazo[4,5-b]pyridin-3-yl)benzyl)-7-azaspiro[3.5]nonan-2-yl)cyanamide] | < 15
11 | C[C@@H]1CN(Cc2ccc(-n3c(-c4cccnc4N)nc4ccc(-c5ccccc5)nc43)cc2)C[C@@H](C)N1C#N [Example 26, (2R,6R)-4-(4-(2-(2-Aminopyridin-3-yl)-5-phenyl-3H-imidazo[4,5-b]pyridin-3-yl)benzyl)-2,6-dimethylpiperazine-1-carbonitrile] | > 600
12 | N#CN[C@H]1CCCN(Cc2ccc(-n3c(-c4cccnc4N)nc4ccc(-c5ccccc5)nc43)cc2)C1 [Example 6, (S)—N-(1-(4-(2-(2-Aminopyridin-3-yl)-5-phenyl-3H-imidazo[4,5-b]pyridin-3-yl)benzyl)piperidin-3-yl)cyanamide] | 15 to 60
